Consider twelve molecules from patent publication US6586440B2, “Pharmaceutical compositions of 5-alkynyl uracil compounds” (SmithKline Beecham Corporation, priority 1990, dated 2003).

For data set [1], the target named is T1, Uracil reductase (dihydropyrimidine dehydrogenase, EC 1.3.1.2) (Bos taurus, UniProt Q28007).
T1 construct: (dihydropyrimidine dehydrogenase, EC 1.3.1.2) purified from bovine live; from tissue; host or cells: bovine liver ('bovine live' [sic])
T1 sequence (Q28007 1-1025): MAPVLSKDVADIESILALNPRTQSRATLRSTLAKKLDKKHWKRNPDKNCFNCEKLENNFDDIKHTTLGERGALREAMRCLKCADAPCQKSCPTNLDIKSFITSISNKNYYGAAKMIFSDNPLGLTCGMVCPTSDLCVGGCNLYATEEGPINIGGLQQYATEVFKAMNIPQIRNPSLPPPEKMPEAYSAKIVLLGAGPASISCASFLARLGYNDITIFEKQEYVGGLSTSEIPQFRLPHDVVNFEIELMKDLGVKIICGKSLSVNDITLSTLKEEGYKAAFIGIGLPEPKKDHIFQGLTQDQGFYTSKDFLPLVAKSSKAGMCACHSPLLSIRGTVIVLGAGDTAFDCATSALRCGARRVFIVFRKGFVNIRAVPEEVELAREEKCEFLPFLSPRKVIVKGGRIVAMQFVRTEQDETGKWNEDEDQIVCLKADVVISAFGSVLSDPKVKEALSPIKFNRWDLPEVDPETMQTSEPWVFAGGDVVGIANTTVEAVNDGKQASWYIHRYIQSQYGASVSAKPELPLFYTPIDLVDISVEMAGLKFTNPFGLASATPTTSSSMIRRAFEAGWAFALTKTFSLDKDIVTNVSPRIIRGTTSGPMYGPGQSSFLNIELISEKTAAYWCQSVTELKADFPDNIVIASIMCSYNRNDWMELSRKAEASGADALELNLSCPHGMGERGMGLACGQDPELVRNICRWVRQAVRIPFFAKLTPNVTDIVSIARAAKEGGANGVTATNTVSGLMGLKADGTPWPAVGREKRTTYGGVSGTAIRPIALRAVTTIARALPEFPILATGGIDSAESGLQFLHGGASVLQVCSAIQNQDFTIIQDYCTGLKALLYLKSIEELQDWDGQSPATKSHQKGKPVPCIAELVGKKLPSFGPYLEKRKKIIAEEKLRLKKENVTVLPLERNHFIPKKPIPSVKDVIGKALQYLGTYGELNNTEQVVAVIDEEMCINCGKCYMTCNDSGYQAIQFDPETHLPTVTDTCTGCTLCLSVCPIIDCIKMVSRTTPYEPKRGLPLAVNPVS
The experiment in a line: Determination of uracil reductase inactivation. It is filed as biochemical, bovine. The note with it: for inhibition at 100 µM: 0.5 h; for relative first-order rate constants for inactivation of enzyme (parenthetical values): fractional activity as a function of time of incubation of 50 μM inactivator with enzyme. Here is the method: Determination of Uracil Reductase Inactivation
Uracil reductase (1 μM) (dihydropyrimidine dehydrogenase, EC 1.3.1.2) purified from bovine live was incubated with 100 μM inactivator and 5 mM dithiothreitol (enzyme reductant) at 37° for 30 minutes in 0.05 M Tris-HCL at pH 8.0. The enzyme and inactivator were diluated 100-fold into the assay buffer, which contained 200 μM NADPH, 200 μM thymine and 1 μM dithiothreitol in Tris-HCl at pH 8.0. The velocity of the enzyme was determined spectrophotometrically. These velocities have been corrected for NADPH oxidase activity, which was less than 10% of the rate of thymine-dependent oxidation of NADPH. The % inactivation of the enzyme was equal to 100% minus the percent of enzymatic activity remaining. Enzyme incubated without inhibitor was stable under these conditions. Parenthetical values are the relative first-order rate constants for inactivation of enzyme determined from similar experiments where the fractional activity was measured as a function of the time of incubation of 50 μM inactivator with enzyme.

A further data set relates to Male mice. In words: Protection from zidovudine toxicity in mice. Type of data set: in vivo. Here is the method: Male mice were doses p.o. with 1000 mg/kg/day of zidovudine for 30 days either alone, or 1.5 hours after dosing with 2 mg/kg/day of 5-ethynyluracil (5-EU). Other groups of mice (a) were dosed with 2 mg/kg/day of 5-ethynyluracil alone; and (b) served as controls, receiving neither zidovudine nor 5-ethynyluracil. Levels of haematocrit, haemoglobin and red blood cells were determined.

[2] abbreviates: 1 μM enzyme incubated with 100 μM inactivator and 5 mM dithiothreitol, 37°, 30 minutes, pH 8.0, then diluted 100-fold into assay buffer, read-out: % Inactivation.
Setting [3] is: male mice, p.o., 30 days, zidovudine 1000 mg/kg/day, 5-EU 2 mg/kg/day, given 1.5 hours before zidovudine in the combination.

As usually defined, the melting point is the temperature of the solid-liquid transition.

Like-named read-outs stand apart in the source and are kept apart here.

With `O=c1[nH]cc(Br)c(=O)[nH]1` [5 -bromouracil, 5-bromouracil], the inhibition at 100 µM in data set [1] (pH 8, read-out: % Inactivation) was 75%. As for `C=C(Cl)c1c[nH]c(=O)[nH]c1=O` [5-(1-chlorovinyl)uracil], in data set [1] (setting [2]), the inhibition at 100 µM was 100%. In addition, in data set [1], the “relative first-order rate constants for inactivation of enzyme (parenthetical values)” value (shortened to “relative first-order rate constants”) is on record as “(5)”. As to `O=c1[nH]cc(C(Cl)=CBr)c(=O)[nH]1` [5-(2-bromo-1-chlorovinyl)uracil], the inhibition at 100 µM in data set [1] (setting [2]) turned out to be 68%. For `O=c1[nH]cc(C#CBr)c(=O)[nH]1` [5-bromoethynyluracil], the inhibition at 100 µM in data set [1] (setting [2]) was 100%. The “relative first-order rate constants” value in data set [1] is listed as “(8)”. Consider `O=c1[nH]cc(C=CBr)c(=O)[nH]1` [5-bromovinyluracil], for which the inhibition at 100 µM in data set [1] (setting [2]) came out at 93%.

As for `N#Cc1c[nH]c(=O)[nH]c1=O` [5-cyanouracil], the inhibition at 100 µM in data set [1] (setting [2]) came to 100%. In addition, the “relative first-order rate constants” value in data set [1] is on record as “(14)”.

In the case of `C#Cc1c[nH]c(=O)[nH]c1=O` [5-ethynyluracil, 5-Ethynyluracil], in the data set with Male mice (setting [3]), the HEMATOCRIT turned out to be 45.9%, the HEMOGLOBIN amounted to 15.1 g/dL and the RED BLOOD CELLS turned out to be 9.1 million/µL. The “prevention of red-blood cell anaemia induced by treatment with zidovudine” value in the data set with Male mice (mice) was “at least partially prevented”. Further, in data set [1] (setting [2]), the inhibition at 100 µM worked out at 100%. The “relative first-order rate constants” value in data set [1] is recorded as “(100)”. Take `CCCCC#Cc1c[nH]c(=O)[nH]c1=O` [5-hex-1-ynyluracil]: in data set [1] (setting [2]), the inhibition at 100 µM is 90%. As to `CC#Cc1c[nH]c(=O)[nH]c1=O` [5-propynyluracil, 5-Propynyluracil], the melting point is 275 to 280 °C (dec.). For the same molecule, in data set [1] (setting [2]), the inhibition at 100 µM is 100%. For the same molecule, the “relative first-order rate constants” value in data set [1] was “(8)”. With `O=c1[nH]cc(C(F)(F)F)c(=O)[nH]1` [5-trifluorouracil], the “% Inactivation” value in data set [1] (1 μM enzyme incubated with 100 μM inactivator and 5 mM dithiothreitol, 37°, 30 minutes, pH 8.0, then diluted 100-fold into assay buffer) was determined as 75%. For `C=Cc1c[nH]c(=O)[nH]c1=O` [5-vinyluracil], the inhibition at 100 µM in data set [1] (setting [2]) came out at 86%. For `O=c1[nH]cc(I)c(=O)[nH]1` [Example 5-iodouracil, 5-iodouracil], the inhibition at 100 µM in data set [1] (setting [2]) worked out at 100%. The “relative first-order rate constants” value in data set [1] was “(4)”.
